Measurements as given in US8772504B2, “Substituted benzoxazole, benzimidazole, oxazolopyridine and imidazopyridine derivatives as gamma secretase modulators” (Janssen Pharmaceuticals, Inc., priority 2009, dated 2014).

Legend:
Aβ42 [1] = assay: In vivo efficacy Method 1: brain soluble Aβ42 by ELISA; design: species or system mouse; conditions: Table 4a, single oral dose, overnight fasted animals, sacrificed after 4 h, soluble fraction of brain homogenates
Excerpt: (§1) To determine whether acute administration of an Aβ42 lowering agent would reduce Aβ42 levels in vivo, non-transgenic rodents, e.g. mice or rats were used. Alternatively, two to three month old Tg2576 mice expressing APP695 containing the “Swedish” variant can be used or a transgenic mouse model developed by Dr. Fred Van Leuven (K.U. Leuven, Belgium) and co-workers, with neuron-specific expression of a clinical mutant of the human amyloid precursor protein [V717I] […] Young transgenic mice have high levels of Aβ in the brain but no detectable Aβ deposition. At approximately 6-8 months of age, the transgenic mice start to display spontaneous, progressive accumulation of β-amyloid (Aβ) in the brain, eventually resulting in amyloid plaques within the subiculum, hippocampus and cortex. Animals treated with the Aβ42 lowering agent were examined and compared to those untreated or treated with vehicle and brain levels of soluble Aβ42 and total Aβ would be quantitated by standard techniques, for example, using ELISA.
(§2) A typical protocol for measuring Aβ42 lowering in vivo is shown but it is only one of many variations that could be used to optimize the levels of detectable Aβ. For example, Aβ42 lowering compounds were formulated in 20% of Captisol® (a sulfobutyl ether of β-cyclodextrin) in water or 20% hydroxypropyl β cyclodextrin. The Aβ42 lowering agents were administered as a single oral dose or by any acceptable route of administration to overnight fasted animals. After 4 h, the animals were sacrificed and Aβ42 levels were analysed.
(§3) Blood was collected by decapitation and exsanguinations in EDTA-treated collection tubes. Blood was centrifuged at 1900 g for 10 minutes (min) at 4° C. and the plasma recovered and flash frozen for later analysis. The brain was removed from the cranium and hindbrain. The cerebellum was removed and the left and right hemisphere were separated. The left hemisphere was stored at −18° C. for quantitative analysis of test compound levels. The right hemisphere was rinsed with phosphate-buffered saline (PBS) buffer and immediately frozen on dry ice and stored at −80° C. until homogenization for biochemical assays.
(§4) All samples were sonicated for 30 seconds on ice at 20% power output (pulse mode). Homogenates were centrifuged at 221.300×g for 50 min. The resulting high speed supernatants were then transferred to fresh tubes and were optionally further purified before the next step. A portion of the supernatant was neutralized with 10% 0.5 M Tris-HCl and this was used to quantify Aβtotal.
(§5) The obtained supernatants were purified with Water Oasis HLB reverse phase columns (Waters Corp., Milford, Mass.) to remove non-specific immunoreactive material from the brain lysates prior subsequent Aβ detection. Using a vacuum manifold, all solutions were passed through the columns at a rate of approximately 1 ml per min, so the vacuum pressure was adjusted accordingly throughout the procedure. Columns were preconditioned with 1 ml of 100% MeOH, before equilibration with 1 ml of H2O, Non-neutralized brain lysates were loaded onto the columns. The loaded samples were then washed twice with the first wash performed with 1 ml of 5% MeOH, and the second wash with 1 ml of 30% MeOH. Finally, the Aβ was eluted from the columns and into 100×30 mm glass tubes, with a solution of 90% MeOH with 2% NH4OH. The eluate was then transferred into 1.5 ml tubes and concentrated in a speed-vac concentrator on high heat for about 1.5-2 h at 70° C. The concentrated Aβ was then resuspended in UltraCULTURE General Purpose Serum-Free Medium (Cambrex Corp., Walkersville, Md.) plus Protease Inhibitors added.
To quantify the amount of Aβ42 in the soluble fraction of the brain homogenates, commercially available Enzyme-Linked-Immunosorbent-Assay (ELISA) kits were used (e.g. Innotest® β-Amyloid(1-42), Innogenetics N.V., Ghent, Belgium). The Aβ42 ELISA was performed using the plate provided with the kit only.

Aβtotal [2] = assay: In vivo efficacy Method 1: brain soluble Aβtotal by ELISA; design: species or system mouse; conditions: Table 4a, single oral dose, overnight fasted animals, sacrificed after 4 h, soluble fraction of brain homogenates
Excerpt: as §1, §2, §3, §4
as §5, with “added. […]” for “added.”

Aβ42 [3] = assay: Screening for γ-secretase-modulating activity, Method 1: Aβ42 sandwich ELISA on SKNBE2 cell media; type: cell-based; conditions: SKNBE2 cells carrying APP 695 wild type
Procedure, shortened: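 SKNBE2 cells expressing wild-type APP695 were treated with compound for 18 h in Ultraculture/1% glutamine. Secreted Aβ42 was quantified by sandwich ELISA (C-terminal capture, biotinylated 3D6, TMB, 450 nm), with WST-1 used as a toxicity check. IC50 was derived from 4-parameter fits of % inhibition or % of untreated control.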

Aβtotal [4] = assay: Screening for γ-secretase-modulating activity, Method 1: Aβtotal sandwich ELISA on SKNBE2 cell media; type: cell-based; conditions: SKNBE2 cells carrying APP 695 wild type
Procedure, shortened: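 SKNBE2 cells expressing wild-type APP 695 were treated with compound for 18 hours. Aβtotal in the medium was measured by sandwich ELISA (6E10 capture, biotinylated 4G8 detection, fluorogenic peroxidase read-out). IC50 came from a 4-parameter fit of % inhibition with top/bottom fixed at 100/0 and Hill slope 1, or as averaged IC50 from % of untreated control.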

Aβtotal [5] = assay: Screening for γ-secretase-modulating activity, Method 2: Aβtotal Alphalisa on SKNBE2 cell supernatant; type: cell-based; conditions: Method 2, Table 3c, SKNBE2 cells carrying APP 695 wild type, overnight incubation
Procedure, shortened: (§6)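 SKNBE2 cells expressing wild-type APP695, plated at 10^4 cells/well with compound at several concentrations and incubated overnight at 37° C. Aβ42 (C-terminal capture, N-terminal biotinylated detection) and Aβtotal (N-terminal/4G8 pair) measured in supernatant by AlphaLISA. IC50 from 4-parameter fit of percent of compound-free control.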

Aβ42 [6] = assay: Screening for γ-secretase-modulating activity, Method 2: Aβ42 Alphalisa on SKNBE2 cell supernatant; type: cell-based; conditions: Method 2, Table 3c, SKNBE2 cells carrying APP 695 wild type, overnight incubation
Procedure, shortened: as §6

[7] = Table 3a, 18 hours, XLfit, top/bottom fixed to 100 and 0, hill slope 1
[8] = Table 3b, non-linear regression of % of control, averaged IC50 values

`COCCn1c(-c2cccc(OC)c2)nc2c(Nc3ccc(-n4cnc(C)c4)c(OC)c3)cccc21.Cl.Cl` [Compound 54] was tested, and the “Aβ42 (% Ctrl) _Mean” value (Aβ42 [1]) was 71 % Ctrl, the “Aβtotal (% Ctrl) _Mean” value (Aβtotal [2]) was 96 % Ctrl and the IC50 (Aβ42 [3]; [7]) was 20 nM. For the same compound, the IC50 (Aβ42 [3]; [8]) was 25 nM, the IC50 (Aβtotal [4]; [7]) was > 1000 nM and the IC50 (Aβtotal [4]; [8]) was > 3000 nM.

In the case of `Cc1ncn(-c2ccc(Nc3cccc4c3nc(-c3ccc(F)cc3)n4C)cn2)n1` [Compound 70], the “Aβ42 (% Ctrl) _Mean” value (Aβ42 [1]) is reported as 64 % Ctrl, the “Aβtotal (% Ctrl) _Mean” value (Aβtotal [2]) is reported as 99 % Ctrl and the IC50 (Aβ42 [3]; [7]) is reported as 50 nM. The IC50 (Aβ42 [3]; [8]) was 37 nM, the IC50 (Aβtotal [4]; [7]) was > 3000 nM and the IC50 (Aβtotal [4]; [8]) was > 3000 nM.

In the case of `COc1cc(Nc2cccc3c2nc(-c2ccc(F)cc2)n3C)ccc1-n1cnc(Br)c1` [Compound 71], the “Aβ42 (% Ctrl) _Mean” value (Aβ42 [1]) is reported as 88 % Ctrl, the “Aβtotal (% Ctrl) _Mean” value (Aβtotal [2]) is reported as 102 % Ctrl and the IC50 (Aβ42 [3]; [7]) is reported as 28 nM. The IC50 (Aβ42 [3]; [8]) was 28 nM, the IC50 (Aβtotal [4]; [7]) was > 1000 nM and the IC50 (Aβtotal [4]; [8]) was > 3000 nM.

In the case of `Cc1ncn(-c2ccc(Nc3cccc4c3nc(-c3ccc(F)cc3)n4C(C)C)cc2F)n1.Cl.Cl` [Compound 74], the “Aβ42 (% Ctrl) _Mean” value (Aβ42 [1]) is reported as 86 % Ctrl, the “Aβtotal (% Ctrl) _Mean” value (Aβtotal [2]) is reported as 99 % Ctrl and the IC50 (Aβ42 [3]; [7]) is reported as 65 nM. For the same compound, the IC50 (Aβ42 [3]; [8]) was 59 nM, the IC50 (Aβtotal [4]; [7]) was > 3000 nM and the IC50 (Aβtotal [4]; [8]) was > 3000 nM.

With `COc1cc(Nc2cccc3oc(-c4ccc(F)cc4)nc23)ccc1-n1cnc(C)c1` [Compound 80] the “Aβ42 (% Ctrl) _Mean” value (Aβ42 [1]) was 97 % Ctrl, the “Aβtotal (% Ctrl) _Mean” value (Aβtotal [2]) was 102 % Ctrl and the IC50 (Aβ42 [3]; [7]) was 1850 nM. The IC50 (Aβ42 [3]; [8]) was 1740 nM, the IC50 (Aβtotal [4]; [7]) was > 30000 nM and the IC50 (Aβtotal [4]; [8]) was > 10000 nM.

In the case of `COc1cc(Nc2cccc3oc(Cc4ccc(F)cc4)nc23)ccc1-n1cnc(C)c1` [Compound 82], the “Aβ42 (% Ctrl) _Mean” value (Aβ42 [1]) is reported as 85 % Ctrl, the “Aβtotal (% Ctrl) _Mean” value (Aβtotal [2]) is reported as 96 % Ctrl and the IC50 (Aβ42 [3]; [7]) is reported as 147 nM. The IC50 (Aβ42 [3]; [8]) was 141 nM, the IC50 (Aβtotal [4]; [7]) was > 3000 nM and the IC50 (Aβtotal [4]; [8]) was > 3000 nM.

In the case of `COc1cc(-c2nc3c(Nc4ccc(-n5cnc(C)n5)c(OC)c4)cccc3n2C)ccc1Cl` [Compound 85], the “Aβ42 (% Ctrl) _Mean” value (Aβ42 [1]) is reported as 71 % Ctrl, the “Aβtotal (% Ctrl) _Mean” value (Aβtotal [2]) is reported as 93 % Ctrl and the IC50 (Aβ42 [3]; [7]) is reported as 10 nM. The IC50 (Aβ42 [3]; [8]) was 10 nM, the IC50 (Aβtotal [4]; [7]) was > 1000 nM and the IC50 (Aβtotal [4]; [8]) was > 3000 nM.

With `COc1cc(Nc2cccc3c2nc(-c2ccc(F)cc2)n3C)ccc1-n1ncnc1C` [Compound 91] the “Aβ42 (% Ctrl) _Mean” value (Aβ42 [1]) was 68 % Ctrl, the “Aβtotal (% Ctrl) _Mean” value (Aβtotal [2]) was 94 % Ctrl and the IC50 (Aβ42 [3]; [7]) was 36 nM. The IC50 (Aβ42 [3]; [8]) was 33 nM, the IC50 (Aβtotal [4]; [7]) was > 3000 nM and the IC50 (Aβtotal [4]; [8]) was > 3000 nM.

In the case of `Cc1cn(-c2ccc(Nc3cccc4c3nc(-c3ccc(F)cc3)n4C)nn2)cn1` [Compound 95], the “Aβ42 (% Ctrl) _Mean” value (Aβ42 [1]) is reported as 85 % Ctrl, the “Aβtotal (% Ctrl) _Mean” value (Aβtotal [2]) is reported as 95 % Ctrl and the IC50 (Aβ42 [3]; [7]) is reported as 331 nM. For the same compound, the IC50 (Aβ42 [3]; [8]) was 331 nM, the IC50 (Aβtotal [4]; [7]) was > 10000 nM and the IC50 (Aβtotal [4]; [8]) was > 10000 nM.

`COc1cc(Nc2cccc3c2nc(-c2cccc(Cl)c2)n3C)ccc1-n1ncnc1C` [Compound 96] was tested, and the “Aβ42 (% Ctrl) _Mean” value (Aβ42 [1]) was 62 % Ctrl, the “Aβtotal (% Ctrl) _Mean” value (Aβtotal [2]) was 88 % Ctrl and the IC50 (Aβ42 [3]; [7]) was 31 nM. The IC50 (Aβ42 [3]; [8]) was 24 nM, the IC50 (Aβtotal [4]; [7]) was > 1000 nM and the IC50 (Aβtotal [4]; [8]) was > 3000 nM.

In the case of `Cc1ncnn1-c1ccc(Nc2nccc3c2nc(-c2ccc(F)cc2)n3C)cc1F` [Compound 97], the “Aβ42 (% Ctrl) _Mean” value (Aβ42 [1]) is reported as 96 % Ctrl, the “Aβtotal (% Ctrl) _Mean” value (Aβtotal [2]) is reported as 96 % Ctrl and the IC50 (Aβ42 [3]; [7]) is reported as 435 nM. The IC50 (Aβ42 [3]; [8]) was 398 nM, the IC50 (Aβtotal [4]; [7]) was > 3000 nM and the IC50 (Aβtotal [4]; [8]) was > 10000 nM.

For `Cc1cn(-c2ccc(Nc3nccc4c3nc(-c3ccc(F)cc3F)n4C)cc2F)cn1` [Compound 104], the “Aβ42 (% Ctrl) _Mean” value (Aβ42 [1]) was 65 % Ctrl, the “Aβtotal (% Ctrl) _Mean” value (Aβtotal [2]) was 110 % Ctrl and the IC50 (Aβ42 [3]; [7]) was 50 nM. For the same compound, the IC50 (Aβ42 [3]; [8]) was 44 nM, the IC50 (Aβtotal [4]; [7]) was > 3000 nM and the IC50 (Aβtotal [4]; [8]) was > 3000 nM.

`COc1nc(Nc2cc(F)cc3c2nc(-c2ccc(F)cc2)n3C(C)C)ccc1-n1cnc(C)c1` [Compound 106] was tested, and the “Aβ42 (% Ctrl) _Mean” value (Aβ42 [1]) was 87 % Ctrl, the IC50 (Aβtotal [5]; Homo sapiens) was 6170 nM and the “Aβtotal (% Ctrl) _Mean” value (Aβtotal [2]) was 104 % Ctrl. The IC50 (Aβ42 [6]; Homo sapiens) was 4 nM.

In the case of `COc1cc(-c2nc3c(Nc4ccc(-n5cnc(C)c5)c(OC)n4)cccc3n2C(C)C)ccc1Cl` [Compound 131], the “Aβ42 (% Ctrl) _Mean” value (Aβ42 [1]) is reported as 51 % Ctrl, the IC50 (Aβtotal [5]) is reported as 8130 nM and the “Aβtotal (% Ctrl) _Mean” value (Aβtotal [2]) is reported as 84 % Ctrl. The IC50 (Aβ42 [6]) was 5 nM.
